Test results published in patent publication US10040759B2, “Substituted azetidinyl compounds as GlyT1 inhibitors” (DART NEUROSCIENCE (CAYMAN) LTD., priority 2014, dated 2018).

These compounds were tested against T1, GlyT1 (Homo sapiens, UniProt P48067) (assay: Glycine Transporter 1 (GlyT1) uptake assay, scintillation proximity assay of [14C]-glycine uptake). Conditions: [14C]-glycine uptake; read-out: GlyT1 (pIC50) (converted).
T1 construct: expressed in transfected cells
T1 sequence (P48067 1-706): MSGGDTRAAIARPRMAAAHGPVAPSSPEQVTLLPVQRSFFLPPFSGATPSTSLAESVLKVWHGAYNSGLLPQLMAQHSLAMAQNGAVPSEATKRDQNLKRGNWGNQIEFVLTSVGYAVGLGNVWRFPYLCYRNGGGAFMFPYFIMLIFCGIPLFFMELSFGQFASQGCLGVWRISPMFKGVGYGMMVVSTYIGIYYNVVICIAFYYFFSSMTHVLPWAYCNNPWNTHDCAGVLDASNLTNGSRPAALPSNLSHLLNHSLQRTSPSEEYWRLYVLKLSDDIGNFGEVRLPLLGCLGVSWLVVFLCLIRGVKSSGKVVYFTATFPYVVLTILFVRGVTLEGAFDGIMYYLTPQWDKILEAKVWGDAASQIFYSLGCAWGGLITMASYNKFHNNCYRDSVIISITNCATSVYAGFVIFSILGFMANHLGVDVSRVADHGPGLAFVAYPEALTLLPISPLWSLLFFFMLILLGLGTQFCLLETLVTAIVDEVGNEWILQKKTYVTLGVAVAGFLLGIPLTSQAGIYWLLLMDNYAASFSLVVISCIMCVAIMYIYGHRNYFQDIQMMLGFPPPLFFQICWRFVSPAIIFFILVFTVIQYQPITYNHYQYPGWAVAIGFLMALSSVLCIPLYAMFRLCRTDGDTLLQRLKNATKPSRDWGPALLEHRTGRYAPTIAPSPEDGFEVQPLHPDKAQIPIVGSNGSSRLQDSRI
Type: cell-based
Procedure, shortened: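 IC50 values were derived by four-parameter logistic fitting of counts. The 2× compound solutions were made by 1:100 dilution into HBSS of DMSO serial dilutions.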
Compound `Cc1cncc(C2CN(C(=O)c3c(OC(C)C(F)(F)F)ccc(C#N)c3Cl)C2)c1` (centres unmarked) [Example 110, 2-Chloro-3-{[3-(5-methylpyridin-3-yl)azetidin-1-yl]carbonyl}-4-[(1,1,1-trifluoropropan-2-yl)oxy]benzonitrile] has an IC50 of 100 to 1000 nM.
`COc1c(S(C)(=O)=O)ccc(O[C@@H](C)C(F)(F)F)c1C(=O)N1CC(c2cc(F)cc(F)c2)C1` [Example 196, 3-(3,5-Difluorophenyl)-1-(3-methanesulfonyl-2-methoxy-6-{[(2S)-1,1,1-trifluoropropan-2-yl]oxy}benzoyl)azetidine] was tested, and the IC50 was less than 100 nM.
For `COc1c(C#N)ccc(C2(F)CCOCC2)c1C(=O)N1CC(F)(c2ccc(F)c(F)c2)C1` [Example 18, 3-{[3-(3,4-Difluorophenyl)-3-fluoroazetidin-1-yl]carbonyl}-4-(4-fluorooxan-4-yl)-2-methoxybenzonitrile], the IC50 was 100 to 1000 nM.
Work on `COc1c(S(C)(=O)=O)ccc(O[C@@H](C)C(F)(F)F)c1C(=O)N1CC(c2cc(F)c(F)cc2Cl)C1` [Example 254, 3-(2-Chloro-4,5-difluorophenyl)-1-(3-methanesulfonyl-2-methoxy-6-{[(2S)-1,1,1-trifluoropropan-2-yl]oxy}benzoyl)azetidine] yielded an IC50 of less than 100 nM.
`COc1c(S(C)(=O)=O)ccc(O[C@@H](C)C(F)(F)F)c1C(=O)N1CC(c2ccc(F)cc2Cl)C1` [Example 145, 3-(2-Chloro-4-fluorophenyl)-1-(3-methanesulfonyl-2-methoxy-6-{[(2S)-1,1,1-trifluoropropan-2-yl]oxy}benzoyl)azetidine] showed an IC50 of 100 to 1000 nM.
`COc1c(S(C)(=O)=O)ccc(O[C@H](C)C(F)(F)F)c1C(=O)N1CC(c2ccc(C3CCOCC3)cc2)C1` [Example 164, 1-(3-Methanesulfonyl-2-methoxy-6-{[(2R)-1,1,1-trifluoropropan-2-yl]oxy}benzoyl)-3-[4-(oxan-4-yl)phenyl]azetidine] showed an IC50 of less than 100 nM.
In the case of `C[C@@H](Oc1ccc(C#N)c(Cl)c1C(=O)N1CC(c2ccc(C3CCOCC3)cn2)C1)C(F)(F)F` [Example 170, 2-Chloro-3-{3-[5-(oxan-4-yl)pyridin-2-yl]azetidine-1-carbonyl}-4-{[(2R)-1,1,1-trifluoropropan-2-yl]oxy}benzonitrile], the IC50 is reported as less than 100 nM.
In the case of `COc1c(S(C)(=O)=O)ccc(O[C@@H](C)C(F)(F)F)c1C(=O)N1CC(c2ccc3ncoc3c2)C1` [Example 246, 6-[1-(3-Methanesulfonyl-2-methoxy-6-{[(2S)-1,1,1-trifluoropropan-2-yl]oxy}benzoyl)azetidin-3-yl]-1,3-benzoxazole], the IC50 is reported as less than 100 nM.
With `COc1c(S(C)(=O)=O)ccc(OCC(F)(F)F)c1C(=O)N1CC(c2ccc(C(F)(F)F)cc2)C1` [Example 235, 1-[3-Methanesulfonyl-2-methoxy-6-(2,2,2-trifluoroethoxy)benzoyl]-3-[4-(trifluoromethyl)phenyl]azetidine] the IC50 was less than 100 nM.
In the case of `COc1c(C#N)ccc(O[C@@H](C)C(F)(F)F)c1C(=O)N1CC(F)(c2ccc(F)c(F)c2)C1` [Example 70, 3-{[3-(3,4-Difluorophenyl)-3-fluoroazetidin-1-yl]carbonyl}-2-methoxy-4-{[(2S)-1,1,1-trifluoropropan-2-yl]oxy}benzonitrile], the IC50 is reported as 100 to 1000 nM.
With `COc1c(S(C)(=O)=O)ccc(OCC(F)(F)F)c1C(=O)N1CC(c2ncc(C(F)(F)F)cc2F)C1` [Example 231, 3-Fluoro-2-{1-[3-methanesulfonyl-2-methoxy-6-(2,2,2-trifluoroethoxy)benzoyl]azetidin-3-yl}-5-(trifluoromethyl)pyridine] the IC50 was 100 to 1000 nM.
With `COc1c(C#N)ccc(OC(C)C)c1C(=O)N1CC(c2ccc(C3CCOCC3)cn2)C1` [Example 166, 2-Methoxy-3-{3-[5-(oxan-4-yl)pyridin-2-yl]azetidine-1-carbonyl}-4-(propan-2-yloxy)benzonitrile] the IC50 was 100 to 1000 nM.
`COc1c(S(C)(=O)=O)ccc(O[C@@H](C)C(F)(F)F)c1C(=O)N1CC(c2ccc(C(F)F)cc2F)C1` [Example 143, 3-[4-(Difluoromethyl)-2-fluorophenyl]-1-(3-methanesulfonyl-2-methoxy-6-{[(2S)-1,1,1-trifluoropropan-2-yl]oxy}benzoyl)azetidine] showed an IC50 of 100 to 1000 nM.
For `CC(Oc1ccc(C#N)c(Cl)c1C(=O)N1CC(c2ccc(F)c(F)c2)C1)C(F)(F)F` (centres unmarked) [Example 81, 2-Chloro-3-{[3-(3,4-difluorophenyl)azetidin-1-yl]carbonyl}-4-[(1,1,1-trifluoropropan-2-yl)oxy]benzonitrile], the IC50 was 1000 to 10000 nM.
Work on `COc1c(C#N)ccc(O[C@H](C)C(F)(F)F)c1C(=O)N1CC(c2ncc(C(F)(F)F)cc2Cl)C1` [Example 136, 3-{3-[3-Chloro-5-(trifluoromethyl)pyridin-2-yl]azetidine-1-carbonyl}-2-methoxy-4-{[(2R)-1,1,1-trifluoropropan-2-yl]oxy}benzonitrile] yielded an IC50 of 100 to 1000 nM.
Work on `COc1c(S(C)(=O)=O)ccc(O[C@@H](C)C(F)(F)F)c1C(=O)N1CC(c2cc(Cl)ccc2F)C1` [Example 251, 3-(5-Chloro-2-fluorophenyl)-1-(3-methanesulfonyl-2-methoxy-6-{[(2S)-1,1,1-trifluoropropan-2-yl]oxy}benzoyl)azetidine] yielded an IC50 of less than 100 nM.
In the case of `COc1c(C#N)ccc(C2(F)CCOCC2)c1C(=O)N1CC(c2ncc(C(F)(F)F)cc2Cl)C1` [Example 117, 3-({3-[3-Chloro-5-(trifluoromethyl)pyridin-2-yl]azetidin-1-yl}carbonyl)-4-(4-fluorooxan-4-yl)-2-methoxybenzonitrile], the IC50 is reported as less than 100 nM.
Work on `COc1c(S(C)(=O)=O)ccc(OCC(C)(C)C)c1C(=O)N1CC(c2ccc(C(F)(F)F)cc2)C1` [Example 238, 1-[6-(2,2-Dimethylpropoxy)-3-methanesulfonyl-2-methoxybenzoyl]-3-[4-(trifluoromethyl)phenyl]azetidine] yielded an IC50 of less than 100 nM.
`C[C@H](Oc1ccc(C#N)c(Cl)c1C(=O)N1CC(c2ccccc2)C1)C(F)(F)F` [Example 54, 2-Chloro-3-(3-phenylazetidine-1-carbonyl)-4-{[(2S)-1,1,1-trifluoropropan-2-yl]oxy}benzonitrile] showed an IC50 of 100 to 1000 nM.
For `COc1c(S(C)(=O)=O)ccc(O[C@@H](C)C(F)(F)F)c1C(=O)N1CC(Oc2cccc(F)c2)C1` [Example 207, 3-(3-Fluorophenoxy)-1-(3-methanesulfonyl-2-methoxy-6-{[(2S)-1,1,1-trifluoropropan-2-yl]oxy}benzoyl)azetidine], the IC50 was less than 100 nM.
`COc1c(S(C)(=O)=O)ccc(O[C@@H](C)C(F)(F)F)c1C(=O)N1CC(c2cc(C)ccc2F)C1` [Example 42, 3-(2-Fluoro-5-methylphenyl)-1-(3-methanesulfonyl-2-methoxy-6-{[(2S)-1,1,1-trifluoropropan-2-yl]oxy}benzoyl)azetidine] showed an IC50 of less than 100 nM.
`COc1c(C#N)ccc(C2(F)CCC2)c1C(=O)N1CC(c2ccc(C3CCOCC3)cn2)C1` [Example 162, 4-(1-Fluorocyclobutyl)-2-methoxy-3-{3-[5-(oxan-4-yl)pyridin-2-yl]azetidine-1-carbonyl}benzonitrile] was tested, and the IC50 was 100 to 1000 nM.
`COc1c(S(C)(=O)=O)ccc(O[C@@H](C)C(F)(F)F)c1C(=O)N1CC(Oc2cccc(Cl)c2)C1` [Example 200, 3-(3-Chlorophenoxy)-1-(3-methanesulfonyl-2-methoxy-6-{[(2S)-1,1,1-trifluoropropan-2-yl]oxy}benzoyl)azetidine] was tested, and the IC50 was less than 100 nM.
With `COc1c(S(C)(=O)=O)ccc(OCC(F)(F)F)c1C(=O)N1CC(c2ccc(C(F)(F)F)cn2)C1` [Example 229, 2-{1-[3-Methanesulfonyl-2-methoxy-6-(2,2,2-trifluoroethoxy)benzoyl]azetidin-3-yl}-5-(trifluoromethyl)pyridine] the IC50 was 100 to 1000 nM.
In the case of `COc1c(C#N)ccc(C2CC(F)(F)C2)c1C(=O)N1CC(c2ccc(C(F)(F)F)cn2)C1` [Example 151, 4-(3,3-Difluorocyclobutyl)-2-methoxy-3-{3-[5-(trifluoromethyl)pyridin-2-yl]azetidine-1-carbonyl}benzonitrile], the IC50 is reported as 100 to 1000 nM.
`COc1c(S(C)(=O)=O)ccc(O[C@@H](C)C(F)(F)F)c1C(=O)N1CC(c2cccc(F)c2F)C1` [Example 157, 3-(2,3-Difluorophenyl)-1-(3-methanesulfonyl-2-methoxy-6-{[(2S)-1,1,1-trifluoropropan-2-yl]oxy}benzoyl)azetidine] was tested, and the IC50 was less than 100 nM.
`COc1c(C#N)ccc(O[C@@H](C)C(F)(F)F)c1C(=O)N1CC(c2ncc(C#N)cc2Cl)C1` [Example 13, 5-Chloro-6-{1-[(3-cyano-2-methoxy-6-{[(2S)-1,1,1-trifluoropropan-2-yl]oxy}phenyl)carbonyl]azetidin-3-yl}pyridine-3-carbonitrile] was tested, and the IC50 was 100 to 1000 nM.
With `COc1c(C#N)ccc(OC(C)C(F)(F)F)c1C(=O)N1CC(c2ccc(C(F)(F)F)cc2)C1` (centres unmarked) [Example 98, 2-Methoxy-3-({3-[4-(trifluoromethyl)phenyl]azetidin-1-yl}carbonyl)-4-[(1,1,1-trifluoropropan-2-yl)oxy]benzonitrile] the IC50 was 100 to 1000 nM.
Work on `CCc1cc(C(F)(F)F)cnc1C1CN(C(=O)c2c(O[C@@H](C)C(F)(F)F)ccc(C#N)c2OC)C1` [Example 8, (S)-3-(3-(3-ethyl-5-(trifluoromethyl)pyridin-2-yl)azetidine-1-carbonyl)-2-methoxy-4-((1,1,1-trifluoropropan-2-yl)oxy)benzonitrile] yielded an IC50 of less than 100 nM.
